From patent publication US20210179636A1, “ANTIBACTERIAL COMPOUNDS” (priority 2016, published 2021)
In brackets after ≈: the same amount, converted by molar mass. Read-outs that look alike come from different tables or passages of the source.

Key:
[1] = test system: Acinetobacter baumannii ATCC 19606; test: MIC, broth microdilution (CLSI); format: cell-based; conditions: A. baumannii ATCC 19606, 16-20 h, mode of three experiments
[2] = test system: Streptococcus pneumoniae ATCC 49619; test: MIC, broth microdilution (CLSI); format: cell-based; conditions: S. pneumoniae ATCC 49619, 16-20 h, mode of three experiments
[3] = test system: Klebsiella pneumoniae ATCC 700603; test: MIC, broth microdilution (CLSI); format: cell-based; conditions: K. pneumoniae ATCC 700603, 16-20 h, mode of three experiments
[4] = test system: Acinetobacter baumannii NCTC 13420; test: MIC, broth microdilution (CLSI); format: cell-based; conditions: A. baumannii NCTC 13420, 16-20 h, mode of three experiments
[5] = test system: Staphylococcus aureus ATCC 29213; test: MIC, broth microdilution (CLSI); format: cell-based; conditions: S. aureus ATCC 29213, 16-20 h, mode of three experiments
[6] = test system: Enterobacter cloacae NCTC 13406; test: MIC, broth microdilution (CLSI); format: cell-based; conditions: E. cloacae NCTC 13406, 16-20 h, mode of three experiments
HepG2 ATCC HB-8065 = test: Human cell viability assay (CellTiter-Glo); format: cell-based; conditions: for IC50 HepG2 / IC50: HepG2 cell viability, 24 h with compound, range 1-128 μg/mL; for IC50: Homo sapiens
Procedure: Compounds are assessed for potential non-specific cytotoxic effects against a human hepatic cell line (HepG2 ATCC HB-8065). HepG2 cells are seeded at 20,000 cells/well in 96-well microtitre plates in minimal essential medium (MEM) supplemented with a final concentration of 10% FBS and 1 mM sodium pyruvate. After 24 h compound dilutions are prepared in Dulbecco's minimum essential media (DMEM) supplemented with final concentrations of 0.001% FBS, 0.3% bovine albumin and 0.02% HEPES and added to cells. Compounds are tested in two-fold serial dilutions over a final concentration range of 1-128 μg/mL in a final DMSO concentration of 1% vol/vol. Chlorpromazine is used as a positive control. Cells are incubated with compound at 37° C. and 5% CO2 for a further 24 h, after which time the CellTiter-Glo reagent (Promega) is added. Luminescence is measured on a BMG Omega plate reader. Data are analysed using GraphPad Prism software to determine the concentration of compound that inhibits cell viability by fifty percent (IC50).

[7] = test system: Haemophilus influenzae ATCC 49247; test: MIC, broth microdilution (CLSI); format: cell-based; conditions: H. influenzae ATCC 49247, 16-20 h, mode of three experiments
[8] = test system: Escherichia coli ATCC 25922; test: MIC, broth microdilution (CLSI); format: cell-based; conditions: E. coli ATCC 25922, 16-20 h, mode of three experiments
[9] = test system: Mycobacterium smegmatis ATCC 19420; test: MIC, broth microdilution (CLSI); format: cell-based; conditions: M. smegmatis ATCC 19420, 16-20 h, mode of three experiments
[10] = test system: Pseudomonas aeruginosa ATCC 27853; test: MIC, broth microdilution (CLSI); format: cell-based; conditions: P. aeruginosa ATCC 27853, 16-20 h, mode of three experiments
E. coli NCTC 13476 = test: MIC, broth microdilution (CLSI); format: cell-based, Escherichia coli; conditions: mode of three experiments
E. coli MG1655 D87G = format: cell-based, Escherichia coli; conditions: compared to the isogenic parent strain E. coli MG1655; D87G mutation on DNA gyrase subunit GyrA
E. coli MG1655 WT = test: MIC, broth microdilution (CLSI); format: cell-based, Escherichia coli
E. coli MG1655 S83L = format: cell-based, Escherichia coli; conditions: compared to the isogenic parent strain E. coli MG1655; S83L mutation on DNA gyrase subunit GyrA
E. coli ATCC BAA-2452 = test: MIC, broth microdilution (CLSI); format: cell-based, Escherichia coli; conditions: 16-20 h, mode of three experiments
[11] = test system: Klebsiella pneumoniae NCTC 13443; test: MIC, broth microdilution (CLSI); format: cell-based; conditions: NCTC13443, K. pneumoniae NCTC 13443, 16-20 h, mode of three experiments
[12] = Streptococcus pneumoniae, ATCC49619, read-out: MIC
[13] = Klebsiella pneumoniae, ATCC700603, read-out: MIC
[14] = Acinetobacter baumannii, NCTC13420, read-out: MIC
[15] = Staphylococcus aureus, ATCC29213, read-out: MIC
[16] = Enterobacter cloacae, NCTC13406, read-out: MIC
[17] = Haemophilus influenzae, ATCC49247, read-out: MIC
[18] = Escherichia coli, ATCC25922, read-out: MIC
[19] = Pseudomonas aeruginosa, ATCC27853, read-out: MIC

| SMILES | MIC [1] | MIC [2] | MIC [3] | MIC [4] | MIC [5] | MIC [6] | IC50 HepG2 (HepG2 ATCC HB-8065) | MIC [7] | MIC [8] | MIC [9] | MIC [10] | MIC [2, 12] [µg/mL] | MIC [3, 13] [µg/mL] | MIC [4, 14] [µg/mL] | MIC [5, 15] [µg/mL] | MIC [6, 16] [µg/mL] | IC50 (HepG2 ATCC HB-8065) [µg/mL] | MIC [7, 17] [µg/mL] | MIC [8, 18] [µg/mL] | MIC [10, 19] [µg/mL] | also measured |
| --- | --- | --- | --- | --- | --- | --- | --- | --- | --- | --- | --- | --- | --- | --- | --- | --- | --- | --- | --- | --- | --- |
| COc1ccc2c3nocc3c(=O)n(CCN3C[C@H]4CN(c5ccc6c(n5)NC(=O)CO6)C(=O)O[C@H]4C3)c2c1 (relative stereo) [Compound 9, rel-(4aS*,7aR*-6-(2-{7-methoxy-4-oxo-4H,5H-[1,2]oxazolo[3,4-c]quinolin-5-yl}ethyl)-3-{3-oxo-2H,3H,4H-pyrido[3,2-b][1,4]oxazin-6-yl}-octahydropyrrolo[3,4-e][1,3]oxazin-2-one] | A (an MIC (in μg/mL) of less or equal to 1 is assigned the letter A) | B (a MIC of from 1 to 10 is assigned the letter B) | D (a MIC of over 100 is assigned the letter D) | D (a MIC of over 100 is assigned the letter D) | A (an MIC (in μg/mL) of less or equal to 1 is assigned the letter A) | D (a MIC of over 100 is assigned the letter D) | C (an IC50 of from 1 to 10 is assigned the letter C) | B (a MIC of from 1 to 10 is assigned the letter B) | C (a MIC of from 10 to 100 is assigned the letter C) | A (an MIC (in μg/mL) of less or equal to 1 is assigned the letter A) | D (a MIC of over 100 is assigned the letter D) |  |  |  |  |  |  |  |  |  |  |
| COc1ccc2ccc(=O)n(CCN3C[C@@H]4CN(c5ccc6c(n5)NC(=O)CO6)C(=O)O[C@H]4C3)c2n1 (relative stereo) [Compound 1] |  |  |  |  |  |  |  |  |  |  |  | < 1 | 10 to 100 (≈ 20.3 to 203 µM) | < 1 | < 1 | 1 to 10 (≈ 2.03 to 20.3 µM) | > 100 | < 1 | < 1 | 1 to 10 (≈ 2.03 to 20.3 µM) | MIC ([9]; Mycolicibacterium smegmatis, ATCC19420, read-out: MIC): < 1 µg/mL |
| O=C1COc2ccc(N3C[C@@H]4CN(CCn5c(=O)ccc6ccc(Oc7cccnc7)nc65)C[C@@H]4OC3=O)nc2N1 (relative stereo) [Compound 7, rel-1-{2-[(4aS*,7aR*-2-oxo-3-{3-oxo-2H,3H,4H-pyrido[3,2-b][1,4]oxazin-6-yl}-octahydropyrrolo[3,4-e][1,3]oxazin-6-yl]ethyl}-7-(pyridin-3-yloxy)-1,2-dihydro-1,8-naphthyridin-2-one] |  | A (an MIC (in μg/mL) of less or equal to 1 is assigned the letter A) | C (a MIC of from 10 to 100 is assigned the letter C) | B (a MIC of from 1 to 10 is assigned the letter B) | A (an MIC (in μg/mL) of less or equal to 1 is assigned the letter A) | C (a MIC of from 10 to 100 is assigned the letter C) | A (an IC50 of over 100 is assigned the letter A) | A (an MIC (in μg/mL) of less or equal to 1 is assigned the letter A) | B (a MIC of from 1 to 10 is assigned the letter B) | A (an MIC (in μg/mL) of less or equal to 1 is assigned the letter A) | C (a MIC of from 10 to 100 is assigned the letter C) |  |  |  |  |  |  |  |  |  |  |
| N#Cc1ccc2ccc(=O)n(CCN3C[C@H]4CN(c5ccc6c(n5)NC(=O)CO6)C(=O)O[C@H]4C3)c2c1 (relative stereo) [Compound 10, rel-1-{2-[(4aS*,7aR*-2-oxo-3-{3-oxo-2H,3H,4H-pyrido[3,2-b][1,4]oxazin-6-yl}-octahydropyrrolo[3,4-e][1,3]oxazin-6-yl]ethyl}-2-oxo-1,2-dihydroquinoline-7-carbonitrile] | A (an MIC (in μg/mL) of less or equal to 1 is assigned the letter A) | A (an MIC (in μg/mL) of less or equal to 1 is assigned the letter A) | B (a MIC of from 1 to 10 is assigned the letter B) | B (a MIC of from 1 to 10 is assigned the letter B) | A (an MIC (in μg/mL) of less or equal to 1 is assigned the letter A) | A (an MIC (in μg/mL) of less or equal to 1 is assigned the letter A) | A (an IC50 of over 100 is assigned the letter A) | A (an MIC (in μg/mL) of less or equal to 1 is assigned the letter A) | A (an MIC (in μg/mL) of less or equal to 1 is assigned the letter A) |  | B (a MIC of from 1 to 10 is assigned the letter B) |  |  |  |  |  |  |  |  |  | MIC (E. coli NCTC 13476; 16-20 h): B (a MIC of from 1 to 10 is assigned the letter B); Fold increase in MIC against E. coli MG1655 D87G (E. coli MG1655 D87G): 1 fold; MIC (E. coli MG1655 WT; E. coli MG1655 WT, 16-20 h, mode of three experiments): A (an MIC (in μg/mL) of less or equal to 1 is assigned the letter A); Fold increase in MIC against E. coli MG1655 S83L (E. coli MG1655 S83L): 1 fold; toxicity against HepG2 human hepatic cell line (in words) (HepG2 ATCC HB-8065): no detectable toxicity; MIC (E. coli ATCC BAA-2452): A (an MIC (in μg/mL) of less or equal to 1 is assigned the letter A) |
| N#Cc1ccc2ccc(=O)n(CCN3CC4CN(c5ccc6c(n5)NC(=O)CO6)C(=O)O[C@@H]4C3)c2c1 (stereo in doubt) [Compound 12, 1-{2-[(4aR,7aS)-2-oxo-3-{3-oxo-2H,3H,4H-pyrido[3,2-b][1,4]oxazin-6-yl}-octahydropyrrolo[3,4-e][1,3]oxazin-6-yl]ethyl}-2-oxo-1,2-dihydroquinoline-7-carbonitrile] |  |  |  |  |  |  |  |  |  |  |  | < 1 | 10 to 100 (≈ 20.6 to 206 µM) | < 1 | < 1 | 1 to 10 (≈ 2.06 to 20.6 µM) | > 100 | < 1 | < 1 | 1 to 10 (≈ 2.06 to 20.6 µM) | MIC ([1]; Acinetobacter baumannii, ATCC19606, read-out: MIC): 1 to 10 µg/mL (≈ 2.06 to 20.6 µM); MIC (E. coli NCTC 13476; Escherichia coli, NCTC13476, 16-20 h, read-out: MIC): 1 to 10 µg/mL (≈ 2.06 to 20.6 µM); Fold increase in MIC against E. coli MG1655 D87G (E. coli MG1655 D87G): 1 fold; MIC (E. coli MG1655 WT; Escherichia coli, MG1655): < 1 µg/mL; Fold increase in MIC against E. coli MG1655 S83L (E. coli MG1655 S83L): 1 fold; MIC (E. coli ATCC BAA-2452; Escherichia coli, read-out: MIC): < 1 µg/mL |
| N#Cc1cccc(-c2cccc(CN3C[C@@H]4CN(c5ccc6c(n5)NC(=O)CO6)C(=O)O[C@H]4C3)c2O)n1 (relative stereo) [Compound 3] |  |  |  |  |  |  |  |  |  |  |  | 1 to 10 (≈ 2.01 to 20.1 µM) | > 100 | 1 to 10 (≈ 2.01 to 20.1 µM) | < 1 | > 100 | 10 to 100 (≈ 20.1 to 201 µM) | 1 to 10 (≈ 2.01 to 20.1 µM) | 1 to 10 (≈ 2.01 to 20.1 µM) | > 100 | toxicity against HepG2 human hepatic cell line (in words) (HepG2 ATCC HB-8065; summary of Table 3): acceptable level of hepatic toxicity; MIC [11]: 1 to 10 µg/mL (≈ 2.01 to 20.1 µM) |
